Test results from patent publication EP2739628B1.
Like-named read-outs stand apart in the source and are kept apart here.

Conditions: rcm bond

## CCOC(=O)C1C/C=C/C[C@H](NC(=O)OC(C)(C)C)c2cc(ccn2)-c2ccc(NC(=O)OC)cc2N1 (stereo partly shown)
From C=CCC(Nc1cc(NC(=O)OC)ccc1-c1ccnc([C@H](CC=C)NC(=O)OC(C)(C)C)c1)C(=O)OCC, Grubbs II
  ring closure, yield of all isomers: 47%

## COC(=O)Nc1ccc2c(c1)N[C@@H](C(=O)OC)CC=CC[C@H](NC(=O)OC(C)(C)C)c1nc-2cn1COCC[Si](C)(C)C
From C=CC[C@H](NC(=O)OC(C)(C)C)c1nc(-c2ccc(NC(=O)OC)cc2N[C@H](CC=C)C(=O)OC)cn1COCC[Si](C)(C)C, Grubbs II, DCE, 40.0 mM, 120.0 °C, 0.33 h
  ring closure, yield of all isomers: 23%

## COC(=O)Nc1ccc2c(c1)NC(=O)C/C=C/C[C@H](NC(=O)OC(C)(C)C)c1cc-2ccn1
From C=CCC(=O)Nc1cc(NC(=O)OC)ccc1-c1ccnc([C@H](CC=C)NC(=O)OC(C)(C)C)c1, Grubbs II, DCM, 3.99 mM, 45.0 °C, 19.0 h
  ring closure, yield of all isomers: 26%

## COC(=O)Nc1ccc2c(c1)NC(=O)[C@H](C)C=CC[C@H](NC(=O)OC(C)(C)C)c1nc-2cn1COCC[Si](C)(C)C
From C=CC[C@H](NC(=O)OC(C)(C)C)c1nc(-c2ccc(NC(=O)OC)cc2NC(=O)[C@H](C)C=C)cn1COCC[Si](C)(C)C, Grubbs 2nd generation catalyst (with pTsOH monohydrate), dichloromethane, 9.73 mM, 40.0 °C, 21.5 h
  ring closure, yield of all isomers: 41%
